Results published in patent publication US6056942A, “5-HT1A ligands” (John Wyeth & Brother, Ltd., priority 1993, dated 2000).
Where two headings read alike, the source gives them in different places.

Legend:
α2 = biological target: T1, α2 (Rattus norvegicus, UniProt P22909); experiment: Procedure (B): affinity for α2 sites; details: 10^-6 M; read-out: % inhibition of binding at α2
T1 construct: from tissue
T1 sequence (P22909 1-465): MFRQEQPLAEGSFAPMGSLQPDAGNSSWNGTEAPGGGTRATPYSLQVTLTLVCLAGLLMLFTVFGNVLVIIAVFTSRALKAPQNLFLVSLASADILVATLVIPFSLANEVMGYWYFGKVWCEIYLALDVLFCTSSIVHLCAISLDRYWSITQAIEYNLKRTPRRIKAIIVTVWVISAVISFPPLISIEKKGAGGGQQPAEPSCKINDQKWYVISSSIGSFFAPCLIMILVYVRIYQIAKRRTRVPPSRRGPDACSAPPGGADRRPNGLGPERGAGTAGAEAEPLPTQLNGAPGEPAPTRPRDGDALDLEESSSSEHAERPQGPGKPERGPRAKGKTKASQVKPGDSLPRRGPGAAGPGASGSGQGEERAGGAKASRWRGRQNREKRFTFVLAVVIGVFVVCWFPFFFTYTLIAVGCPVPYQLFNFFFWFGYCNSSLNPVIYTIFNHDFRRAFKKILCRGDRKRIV
Procedure: The affinity for these sites is determined by the following procedures. α2 : D. J. Loftus et al. Life Sciences, 1984, 34, 61-69.

D1 = biological target: T2, D1 (Rattus norvegicus, UniProt P18901); experiment: Procedure (B): affinity for D1 sites; details: 10^-6 M; read-out: % inhibition of binding at D1
T2 construct: from tissue
T2 sequence (P18901 whole entry): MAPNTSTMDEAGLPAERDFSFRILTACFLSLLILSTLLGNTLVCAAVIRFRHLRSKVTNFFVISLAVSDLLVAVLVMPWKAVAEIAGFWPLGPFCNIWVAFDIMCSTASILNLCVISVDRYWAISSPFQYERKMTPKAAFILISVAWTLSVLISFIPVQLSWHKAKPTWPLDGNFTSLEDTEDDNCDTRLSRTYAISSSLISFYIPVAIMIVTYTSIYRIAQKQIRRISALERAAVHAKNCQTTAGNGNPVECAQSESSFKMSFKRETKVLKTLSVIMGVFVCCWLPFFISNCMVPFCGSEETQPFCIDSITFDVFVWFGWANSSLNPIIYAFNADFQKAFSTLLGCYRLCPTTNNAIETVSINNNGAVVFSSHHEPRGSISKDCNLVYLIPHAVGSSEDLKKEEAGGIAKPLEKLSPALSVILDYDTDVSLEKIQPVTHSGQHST
Procedure: The affinity for these sites is determined by the following procedures. D1 : V Billard et al. Life Sciences. 1984, 35, 1885-1893.

5-HT2A = biological target: T3, 5-HT2A (Rattus norvegicus, UniProt P14842); experiment: Procedure (B): affinity for 5-HT2A sites; format: binding; details: for inhibition at 1 µM: 10^-6 M, read-out: % inhibition of binding at 5-HT2A
T3 construct: from tissue
T3 sequence (P14842 whole entry): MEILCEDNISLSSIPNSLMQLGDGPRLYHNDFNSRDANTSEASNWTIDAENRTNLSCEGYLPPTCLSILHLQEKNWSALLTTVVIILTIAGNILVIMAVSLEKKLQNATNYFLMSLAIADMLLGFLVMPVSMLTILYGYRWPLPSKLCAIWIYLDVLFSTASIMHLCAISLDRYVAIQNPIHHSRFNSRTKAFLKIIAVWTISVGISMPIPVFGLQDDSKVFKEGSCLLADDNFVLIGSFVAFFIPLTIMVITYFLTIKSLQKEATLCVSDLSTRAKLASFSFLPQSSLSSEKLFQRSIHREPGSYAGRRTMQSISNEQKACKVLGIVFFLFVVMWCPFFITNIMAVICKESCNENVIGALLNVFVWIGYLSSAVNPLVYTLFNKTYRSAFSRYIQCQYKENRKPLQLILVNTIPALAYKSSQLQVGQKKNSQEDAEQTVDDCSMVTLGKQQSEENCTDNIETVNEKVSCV
Procedure: The affinity of the compound for 5-HT2A sites is determined by the procedure of R. A. Lyon et al. Mol. Pharmacol., 1987, 31, 194-199. (The 5-HT2A site was previously known as the 5-HT2 site).
(§1) Preferably the compound should be 50 fold selective.

5-HT1B = biological target: T4, 5-HT1B (Rattus norvegicus, UniProt P28564); experiment: Procedure (B): affinity for 5-HT1B sites; details: 10^-6 M; read-out: % inhibition of binding at 5-HT1B
T4 construct: from tissue
T4 sequence (P28564 whole entry): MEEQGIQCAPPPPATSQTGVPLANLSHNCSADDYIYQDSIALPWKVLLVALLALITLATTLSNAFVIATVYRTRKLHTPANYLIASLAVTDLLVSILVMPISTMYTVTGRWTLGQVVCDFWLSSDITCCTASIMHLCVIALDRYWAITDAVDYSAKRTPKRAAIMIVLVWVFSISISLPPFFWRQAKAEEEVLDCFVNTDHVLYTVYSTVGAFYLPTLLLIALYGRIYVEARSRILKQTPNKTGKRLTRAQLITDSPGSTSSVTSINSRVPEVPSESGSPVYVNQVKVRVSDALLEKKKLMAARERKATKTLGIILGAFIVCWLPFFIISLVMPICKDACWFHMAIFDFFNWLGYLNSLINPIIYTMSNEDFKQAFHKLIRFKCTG
Procedure: (§2) In addition to showing selectivity over the D2, α1 and 5-HT2A sites it is also preferable that the compound is 25 fold selective (preferably 50 fold selective) over one or more of the 5-HT1B, 5-HT2C, 5-HT1D, 5-HT3, α2, β and D1 sites. The affinity for these sites is determined by the following procedures.
5-HT1B : B. J. Alexander et al., Br. J. Pharmac., 1986, 87, P 22.

5-HT1A receptor = biological target: T5, 5-HT1A receptor (Rattus norvegicus, UniProt P19327); experiment: Procedure (A): displacement of [^3 H]-8-OH-DPAT from the 5-HT1A receptor in rat hippocampal membranes; format: binding; details: [^3 H]-8-OH-DPAT displacement, read-out: IC50 value according to procedure (A)
T5 construct: 5-HT1A receptor in rat hippocampal membranes; from tissue; host or cells: rat hippocampal membranes
T5 sequence (P19327 1-422): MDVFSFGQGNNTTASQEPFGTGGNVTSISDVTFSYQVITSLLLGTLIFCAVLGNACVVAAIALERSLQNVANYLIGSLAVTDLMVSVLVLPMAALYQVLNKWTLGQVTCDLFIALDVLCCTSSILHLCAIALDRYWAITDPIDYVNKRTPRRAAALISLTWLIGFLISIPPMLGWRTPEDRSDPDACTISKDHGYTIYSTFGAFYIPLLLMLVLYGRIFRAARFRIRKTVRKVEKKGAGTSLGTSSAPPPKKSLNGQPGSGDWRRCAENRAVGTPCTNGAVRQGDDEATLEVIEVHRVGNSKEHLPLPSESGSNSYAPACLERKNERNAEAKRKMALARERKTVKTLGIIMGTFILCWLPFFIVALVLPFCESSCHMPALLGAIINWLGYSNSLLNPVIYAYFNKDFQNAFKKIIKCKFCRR

D2 = D2 (Homo sapiens, UniProt P14416); experiment: Procedure (B): affinity for D2 receptor sites; format: binding; details: for inhibition at 1 µM: 10^-6 M, read-out: % inhibition of binding at D2
Sequence of D2 (P14416 whole entry): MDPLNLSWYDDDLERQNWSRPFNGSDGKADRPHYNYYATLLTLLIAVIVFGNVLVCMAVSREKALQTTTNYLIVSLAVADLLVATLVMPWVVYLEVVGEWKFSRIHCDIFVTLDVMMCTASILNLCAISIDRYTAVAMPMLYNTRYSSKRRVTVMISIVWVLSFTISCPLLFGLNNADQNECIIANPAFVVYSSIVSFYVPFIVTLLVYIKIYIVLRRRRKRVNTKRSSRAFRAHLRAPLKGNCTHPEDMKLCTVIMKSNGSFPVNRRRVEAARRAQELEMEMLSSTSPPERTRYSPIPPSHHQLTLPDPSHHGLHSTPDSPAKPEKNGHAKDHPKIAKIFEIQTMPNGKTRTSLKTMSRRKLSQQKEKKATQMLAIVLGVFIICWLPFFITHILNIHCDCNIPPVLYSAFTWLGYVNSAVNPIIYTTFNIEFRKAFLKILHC
Procedure: The affinity of the compounds for D2 receptor sites is determined by the procedure of P. Seeman et al. J. Neurochem. 1984, 43, 221-235.

[1] = biological target: T6, presynaptic 5-HT1A receptors (Rattus norvegicus, UniProt P19327); experiment: Procedure (C)(b): 5-HT release in the hippocampus using in vivo microdialysis; details: 1 mg/kg s.c.
T6 construct: 5-HT release in the hippocampus using in vivo microdialysis; from tissue; host or cells: brain of the living animal
T6 sequence (P19327 1-422): T5 sequence (P19327 1-422)
Excerpt: (§3) The activation of presynaptic 5-HT1A receptors results in the inhibition of serotonin neurones which can be quantified in two ways:
Routledge, J. Gurling, I. K. Wright and C.

5-HT2C = experiment: Procedure (B): affinity for 5-HT2C (previously 5-HT1C) sites; format: binding; details: 10^-6 M
Procedure: as §2
5-HT2C : B. J. Alexander et al., Br. J. Pharmac., 1986, 87, P 22. (The 5-HT2C site was previously known as the 5-HT1C site).

β = experiment: Procedure (B): affinity for β sites; format: binding; details: 10^-6 M
Procedure: The affinity for these sites is determined by the following procedures. β: L. T. Williams and R. J. Lefkowitz (1987) Receptor binding studies in adrenergic pharmacology, Raven Press, New York.

5-HT1D = experiment: Procedure (B): affinity for 5-HT1D sites; format: binding
Procedure: The affinity for these sites is determined by the following procedures. […] C. Waeber et al., Naunyn-Schmniedebergs Arch. Pharmacol. 1988, 337, 595-601.

α1 = experiment: Procedure (B): affinity for α1 sites; format: binding
Procedure: The affinity of the compound for al sites is determined by the procedure of A. L. Morrow, et al. Mol. Pharmacol. 1986, 29, 321.
as §1

5-HT1A binding site [2] = biological target: T7, 5-HT1A binding site (Rattus norvegicus, UniProt P19327); experiment: biochemical
T7 sequence (P19327 1-422): T5 sequence (P19327 1-422)

[3] = biological target: T6, presynaptic 5-HT1A receptors; experiment: Procedure (C)(a): electrophysiological monitoring of firing rate of serotonin neurones; format: in vivo; details: iv, read-out: ID50 (neuronal firing rate)
Procedure: as §3
(a) Electrophysiologically monitoring the activity of the neurones to measure their firing rate by the method of H. J. Haigler and G. K. Aghajanian, J. Pharmacol. Exp. Therap., 1974, 188, 688. An intravenous ID50 dose is determined. The agonist.

5-HT1A binding site [4] = biological target: T7, 5-HT1A binding site
[5] = concentration of 10 MM (so in the source)
[6] = concentration not clearly stated ("as were")

Question: With `COc1ccccc1N1CCN(CC(C(=O)NC(C)(C)C)c2ccccc2)CC1` (racemic) [racemate, N-tert-butyl-3-[4-(2-methoxyphenyl)piperazinyl]-2-phenylpropanamide] as the compound, how does the inhibition at 1 µM (α2) read?
Answer: 10%

Question: And the inhibition at 1 µM (D1)?
Answer: 20%

Question: And the inhibition at 1 µM (5-HT2A)?
Answer: 37%

Question: And the inhibition at 1 µM (5-HT1B)?
Answer: 27%

Question: What about the IC50 (5-HT1A receptor) of the same compound?
Answer: 34 nM

Question: And the inhibition at 1 µM (D2)?
Answer: 14%

Question: Which results are given for `COc1ccccc1N1CCN(CC(C(=O)NC(C)(C)C)c2ccccc2)CC1` (single isomer, unassigned; (+)) [(+)-enantiomer, N-tert-butyl-3-[4-(2-methoxyphenyl)piperazinyl]-2-phenylpropanamide]?
Answer: inhibition at 1 µM (α2): 11%; inhibition at 1 µM (D1): 22%; inhibition at 1 µM (5-HT2A): 61%; inhibition at 1 µM (5-HT1B): 22%; IC50 (5-HT1A receptor): 15.5 nM; inhibition at 1 µM (D2): 20%

Question: Which results are given for `COc1ccccc1N1CCN(CC[C@@H](C(=O)N2CCCCCC2)c2ccccc2)CC1` [(c)]?
Answer: effect of pretreatment on 8-OH-DPAT-induced decrease in 5-HT release [1]: completely blocked the 8-OH-DPAT-induced decrease in 5-HT release; effect on 5-HT release / extracellular levels of 5-HT in the hippocampus [1]: no significant effect on extracellular levels of 5-HT in the hippocampus; inhibition at 1 µM (α2): 53%; inhibition at 1 µM (D1): < 50%; IC50 (5-HT2A; procedure (B)): 106 nM; inhibition at 1 µM (5-HT1B): < 50%; IC50 (5-HT1A receptor): 0.3 nM; % inhibition of binding at 5-HT2C (5-HT1C) (5-HT2C): < 50%; % inhibition of binding at β (β): < 50%; IC50 (5-HT1D; procedure (B)): 2240 nM; IC50 (D2; procedure (B)): 277 nM; IC50 (α1): 53 nM

Question: `NCCc1c[nH]c2ccc(C(N)=O)cc12` [Compound 5-CT] was tested. Which IC50 (5-HT1A binding site [2]) did it give?
Answer: 10 to 100 nM

Question: For `CCCN(CCC)C1CCc2cccc(O)c2C1` (centres unmarked) [Compound 8-OH-DPAT], which ED50 [3] is on record?
Answer: 1.9 µg/kg

Question: How did the inhibition at 1 µM (α2) turn out when `COc1ccccc1N1CCN(CCN(C(=O)C2CCCCC2)c2ccccn2)CC1` [Compound (a), N-(2-(1-(4-(2-methoxyphenyl)piperazinyl))ethyl)-N-(2-pyridinyl)cyclohexanecarboxamide] was run?
Answer: < 50%

Question: And the inhibition at 1 µM (D1)?
Answer: < 50%

Question: And the inhibition at 1 µM (5-HT2A)?
Answer: < 50%

Question: And the inhibition at 1 µM (5-HT1B)?
Answer: < 50%

Question: And the “% inhibition of binding at 5-HT2C (5-HT1C)” value (5-HT2C)?
Answer: < 50%

Question: And the “% inhibition of binding at β” value (β)?
Answer: < 50%

Question: And the “% inhibition of binding at 5-HT1D” value (5-HT1D; 10^-6 M)?
Answer: < 50%

Question: And the inhibition at 1 µM (D2)?
Answer: < 50%

Question: For `CNC[C@H](O)c1cccc(O)c1` [L-phenylephrine], which “displacement of hippocampal [^3 H]WAY-100635 binding” value (shortened to “displacement of hippocampal”) (5-HT1A binding site [4]; [5]) is on record?
Answer: ineffective

Question: For `COc1ccccc1N1CCN(CCCCN2C(=O)c3ccccc3C2=O)CC1` [NAN 190], which IC50 (5-HT1A binding site [2]) is on record?
Answer: 10 to 100 nM

Question: Which IC50 (5-HT1A binding site [2]) does the source give for `COC(=O)c1cc2c(N3CCN(CCCCN4C(=O)c5ccccc5S4(=O)=O)CC3)cccc2[nH]1` [SDZ-216525] here?
Answer: 5 nM

Question: With `O=C1CN=C(c2ccccc2Cl)c2cc([N+](=O)[O-])ccc2N1` [clonazepam] as the compound, how does the “displacement of hippocampal” value (5-HT1A binding site [4]; [6]) read?
Answer: ineffective

Question: For `NCCc1ccc(O)c(O)c1` [dopamine], which “displacement of hippocampal” value (5-HT1A binding site [4]; [5]) is on record?
Answer: ineffective

Question: How did the “activity against [^3 H]WAY-100635 binding” value (5-HT1A binding site [4]; micromolar concentrations) turn out when `COCCCC/C(=N\OCCN)c1ccc(C(F)(F)F)cc1` [fluvoxarnine] was run?
Answer: inactive

Question: With `CN(C)CCCN1c2ccccc2CCc2ccccc21` [imipramine] as the compound, how does the “displacement of hippocampal” value (5-HT1A binding site [4]; [6]) read?
Answer: ineffective

Question: How did the “displacement of hippocampal” value (5-HT1A binding site [4]; [5]) turn out when `CC(C)NCC(O)c1ccc(O)c(O)c1` (centres unmarked) [isoprenaline] was run?
Answer: ineffective

Question: For `CSc1ccc2c(c1)C(N1CCN(C)CC1)Cc1ccccc1S2` (centres unmarked) [methiothepin], which IC50 (5-HT1A binding site [2]) is on record?
Answer: 10 to 100 nM

Question: With `NC[C@H](O)c1ccc(O)c(O)c1` [noradrenaline] as the compound, how does the “displacement of hippocampal” value (5-HT1A binding site [4]; [5]) read?
Answer: ineffective
